Experimental findings from US9409884B2 (Rigel Pharmaceuticals, Inc., priority 2012, dated 2016) are described below.

Where a name gives a salt, the structure may show the parent alone.

The target in one test is AMPK. Briefly: AMPK activation, enzyme-linked immunosorbent assay. Type of test: biochemical. As to conditions: Table 8, compounds of Table 1. Put shortly:
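Read-out: ELISA, used to detect compound-driven activation of AMPK.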
`N#Cc1ccc(N2CCC(Oc3ccc4oc(C(=O)NC5CCN(Cc6ccccc6)CC5)cc4c3)CC2)cc1` [Compound 1-71, N-(1-benzylpiperidin-4-yl)-5-(1-(4-cyanophenyl)piperidin-4-yloxy)benzofuran-2-carboxamide] came in with a concentration giving a half-maximal response (EC50) of less than 100 nM.

`O=C(NC1CCNCC1)c1cc2ccc(OC3CCN(c4ccc(C(F)(F)F)cc4)CC3)cc2s1` [Compound 1-141, N-(piperidin-4-yl)-6-(1-(4-(trifluoromethyl)phenyl)piperidin-4-yloxy)benzo[b] thiophene-2-carboxamide] gave a concentration for a half-maximal effect (EC50) of 100 to 500 nM.

For the compound `Cc1c(C(=O)NC2CCN(Cc3ccc(C#N)cc3)CC2)oc2cc(OC3CCN(c4ccc(C(F)(F)F)cc4)CC3)ccc12` [Compound 1-64, N-(1-(4-cyanobenzyl)piperidin-4-yl)-3-methyl-6-(1-(4-(trifluoromethyl)phenyl)piperidin-4-yloxy)benzofuran-2-carboxamide], the EC50 is less than 100 nM.

In the case of `NC(=O)c1ccc(CN2CCC(Oc3ccc4oc(C(=O)NC5CCN(Cc6ccccc6)CC5)cc4c3)CC2)cc1` [Compound 1-116, N-(1-benzylpiperidin-4-yl)-5-(1-(4-carbamoylbenzyl)piperidin-4-yloxy)benzofuran-2-carboxamide], the EC50 was 100 to 500 nM.

On to `O=C(NC1CCN(C(=O)c2ccncc2)CC1)c1cc2cc(OC3CCN(c4ccc(C(F)(F)F)cc4)CC3)ccc2o1` [Compound 1-115, N-(1-isonicotinoylpiperidin-4-yl)-5-(1-(4-(trifluoromethyl)phenyl)piperidin-4-yloxy)benzofuran-2-carboxamide], for which the EC50 is less than 100 nM.

The same test, now with this note: Table 8, compounds of Table 1; formate salt.
Take `O=C(NC1CCN(Cc2ccncc2)CC1)c1cc2cc(OC3CCN(c4ccc(C(F)(F)F)cc4)CC3)ccc2o1` [Compound 1-105, N-(1-(pyridin-4-ylmethyl)piperidin-4-yl)-5-(1-(4-(trifluoromethyl)phenyl)piperidin-4-yloxy)benzofuran-2-carboxamide, formate salt]: the concentration giving a half-maximal response (EC50) was less than 100 nM.

Staying with this test, now noted: Table 9, compounds of Table 2.
In turn, `N#Cc1ccc(CN2CCC(NC(=O)c3ccc4[nH]c5c(c4c3)CN(Cc3ccc(C(F)(F)F)cc3)CC5)CC2)cc1` [Compound 2-12, N-(1-(4-cyanobenzyl)piperidin-4-yl)-2-(4-(trifluoromethyl)benzyl)-2,3,4,5-tetrahydro-1H-pyrido[4,3-b]indole-8-carboxamide] displayed an EC50 of less than 500 nM.

The compound `N#Cc1cccc(S(=O)(=O)N2CCC(NC(=O)c3ccc4[nH]c5c(c4c3)CN(Cc3ccc(C(F)(F)F)cc3)CC5)CC2)c1` [Compound 2-29, N-(1-(3-cyanophenylsulfonyl)piperidin-4-yl)-2-(4-(trifluoromethyl)benzyl)-2,3,4,5-tetrahydro-1H-pyrido[4,3-b]indole-8-carboxamide] gave a half-maximal effective concentration (EC50) of 1000 to 5000 nM.

`O=C(NC1CCN(Cc2ccccc2)CC1)c1ccc2[nH]c3c(c2c1)CN(C(=O)OCc1ccccc1)CC3` [Compound 2-2, benzyl 8-(1-(4-benzyl)piperidin-4-ylcarbamoyl)-3,4-dihydro-1H-pyrido[4,3-b]indole-2(5H)-carboxylate] returned a concentration giving a half-maximal response (EC50) of 10000 to 50000 nM.

Compound `N#Cc1ccc(CN2CCC(NC(=O)c3ccc4[nH]c5c(c4c3)CN(Cc3ccc(C(N)=O)cc3)CC5)CC2)cc1` [Compound 2-44, 2-(4-carbamoylbenzyl)-N-(1-(4-cyanobenzyl)piperidin-4-yl)-2,3,4,5-tetrahydro-1H-pyrido[4,3-b]indole-8-carboxamide] gave a 50% effective concentration (EC50) of 10000 to 50000 nM.

`O=C(NC1CCN(Cc2ccccc2)CC1)c1ccc2[nH]c3c(c2c1)CN(S(=O)(=O)c1ccc(C(F)(F)F)cc1)CC3` [Compound 2-19, N-(1-benzylpiperidin-4-yl)-2-(4-(trifluoromethyl)phenylsulfonyl)-2,3,4,5-tetrahydro-1H-pyrido[4,3-b]indole-8-carboxamide] registered an EC50 greater than 100000 nM.

`O=C(NC1CCN(C(=O)c2ccncc2)CC1)c1ccc2[nH]c3c(c2c1)CN(Cc1ccc(C(F)(F)F)cc1)CC3` [Compound 2-51, N-(1-isonicotinoylpiperidin-4-yl)-2-(4-(trifluoromethyl)benzyl)-2,3,4,5-tetrahydro-1H-pyrido[4,3-b]indole-8-carboxamide]: the concentration giving a half-maximal response (EC50) is 500 to 1000 nM.

Staying with this test, now noted: Table 10, compounds of Table 3.
`O=C(NC1CCN(Cc2ccncc2)CC1)c1nc2ccc(OC3CCN(c4ccc(C(F)(F)F)cc4)CC3)cc2o1` [Compound 3-3, N-(1-(pyridin-4-ylmethyl)piperidin-4-yl)-6-(1-(4-(trifluoromethyl)phenyl)piperidin-4-yloxy)benzo[d]oxazole-2-carboxamide] returned a 50% effective concentration (EC50) of less than 100 nM.

The same test, now with this note: Table 11, compounds of Table 4.
`N#Cc1ccc(CN2CCC(NC(=O)c3ccc(C(=O)N4CCN(Cc5ccc(S(=O)(=O)N6CCCC6)cc5)CC4)nc3)CC2)cc1` [Compound 4-16, N-(1-(4-cyanobenzyl)piperidin-4-yl)-6-(4-(4-(pyrrolidin-1-ylsulfonyl)benzyl)piperazine-1-carbonyl)nicotinamide]: the EC50 is less than 500 nM.

Compound `O=C(NC1CCN(Cc2ccc(OC(F)(F)F)cc2)C[C@H]1F)c1ccc(C(=O)N2CCN(c3ccc(S(=O)(=O)N4CCCC4)cc3)CC2)nc1` (stereo partly drawn) [Compound 4-14, N-((3,4-trans)-3-fluoro-1-(4-(trifluoromethoxy)benzyl)piperidin-4-yl)-6-(4-(4-(pyrrolidin-1-ylsulfonyl)phenyl)piperazine-1-carbonyl)nicotinamide] registered an EC50 of less than 500 nM.

Still in this test, the particulars now being: Table 12, compounds of Table 5.
As to `CN1CCC(NC(=O)c2ccc(OC3CCN(Cc4ccc(C(F)(F)F)cc4)CC3)c(Cl)c2)CC1` [Compound 5-58, 3-chloro-N-(1-methylpiperidin-4-yl)-4-(1-(4-(trifluoromethyl)benzyl)piperidin-4-yloxy)benzamide], the half-maximal effective concentration (EC50) is 1000 to 10000 nM.

In turn, `O=C(NC1CCN(Cc2ccccc2)CC1)c1ccc(OC2CCN(Cc3ccc(F)cc3)CC2)c(Cl)c1` [Compound 5-19, N-(1-benzylpiperidin-4-yl)-3-chloro-4-(1-(4-fluorobenzyl)piperidin-4-yloxy)benzamide] displayed a half-maximal effective concentration (EC50) of less than 1000 nM.

`O=C(NCCCN1CCOCC1)c1ccc(OC2CCN(Cc3ccc(Cl)cc3)CC2)cc1` [Compound 5-100, 4-(1-(4-chlorobenzyl)piperidin-4-yloxy)-N-(3-morpholinopropyl)benzamide] came in with a concentration giving a half-maximal response (EC50) of 1000 to 10000 nM.

Turning to `O=C(NC1CCN(Cc2ccccc2)CC1)c1ccc(OC2CCN(Cc3ccc(F)c(F)c3)CC2)c(Cl)c1` [Compound 5-74, N-(1-benzylpiperidin-4-yl)-3-chloro-4-(1-(3,4-difluorobenzyl)piperidin-4-yloxy)benzamide], the EC50 is less than 1000 nM.

In the case of `COc1ccc(CN2CCC(NC(=O)c3cccc(OC4CCN(CC5CCN(c6ccccc6)CC5)CC4)c3)CC2)cc1` [Compound 5-110, N-(1-(4-methoxybenzyl)piperidin-4-yl)-3-(1-((1-phenylpiperidin-4-yl)methyl)piperidin-4-yloxy)benzamide], the half-maximal effective concentration (EC50) is less than 1000 nM.

In turn, `CS(=O)(=O)c1ccc(CN2CC[C@@H](Oc3cccc(C(=O)NC4CCN(Cc5ccc(C#N)cc5)CC4)c3)[C@H](F)C2)cc1` [Compound 5-128, N-(1-(4-cyanobenzyl)piperidin-4-yl)-3-((3,4-trans)-3-fluoro-1-(4-(methylsulfonyl)benzyl)piperidin-4-yloxy)benzamide] showed an EC50 of less than 1000 nM.

In turn, `O=C(NC1CCN(Cc2ccccc2)CC1)c1cccc(OC2CCN(c3ccc(C(F)(F)F)cc3)CC2)c1` [Compound 5-46, N-(1-benzylpiperidin-4-yl)-3-(1-(4-(trifluoromethyl)phenyl)piperidin-4-yloxy)benzamide] registered a half-maximal effective concentration (EC50) of less than 1000 nM.

The same test, now with this note: Table 13, compounds of Table 6.
With `N#Cc1ccc(CN2CCC(NC(=O)c3cc4cc(C(=O)N5CCN(c6ccc(C#N)cc6)CC5)ccc4o3)CC2)cc1` [Compound 6-107, N-(1-(4-cyanobenzyl)piperidin-4-yl)-5-(4-(4-cyanophenyl)piperazine-1-carbonyl)benzofuran-2-carboxamide], the concentration giving a half-maximal response (EC50) is less than 100 nM.

The compound `O=C(NC1CCN(Cc2ccncc2)CC1)c1cc2cc(C(=O)N3CCC(C(=O)c4ccc(F)cc4)CC3)ccc2o1` [Compound 6-15, 5-(4-(4-fluorobenzoyl)piperidine-1-carbonyl)-N-(1-(pyridin-4-ylmethyl)piperidin-4-yl)benzofuran-2-carboxamide] displayed a concentration for a half-maximal effect (EC50) of 100 to 1000 nM.

The compound `COc1ccc(CN2CCC(NC(=O)c3cc4cc(C(=O)N5CCN(Cc6ccc(S(=O)(=O)C(F)(F)F)cc6)CC5)ccc4o3)CC2)cc1F` [Compound 6-134, N-(1-(3-fluoro-4-methoxybenzyl)piperidin-4-yl)-5-(4-(4-(trifluoromethylsulfonyl)benzyl)piperazine-1-carbonyl)benzofuran-2-carboxamide] yielded an EC50 of less than 100 nM.

Regarding `COc1ccc(CN2CCC(C(=O)Nc3ccc4oc(C(=O)NC5CCN(Cc6ccc(C#N)cc6)CC5)cc4c3)CC2)cc1` [Compound 6-40, N-(2-(1-(4-cyanobenzyl)piperidin-4-ylcarbamoyl)benzofuran-5-yl)-1-(4-methoxybenzyl)piperidine-4-carboxamide], the EC50 is 1000 to 10000 nM.

For `COc1ccc(-n2cc(C(=O)Nc3ccc4oc(C(=O)NC5CCN(Cc6ccc(C#N)cc6)CC5)cc4c3)cn2)cc1` [Compound 6-59, N-(2-(1-(4-cyanobenzyl)piperidin-4-ylcarbamoyl)benzofuran-5-yl)-1-(4-methoxyphenyl)-1H-pyrazole-4-carboxamide], the EC50 was in the range of 100 to 1000 nM.

The same test, now with this note: Table 14, compounds of Table 7.
`CC(=O)c1ccc(OC2CCN(C(=O)c3ccc(C(=O)NC4CCN(Cc5ccc(C#N)cc5)C[C@H]4F)cn3)CC2)cc1` (stereo partly drawn) [Compound 7-74, 6-(4-(4-acetylphenoxy)piperidine-1-carbonyl)-N-((3,4-trans)-1-(4-cyanobenzyl)-3-fluoropiperidin-4-yl)nicotinamide]: the EC50 is less than 1000 nM.

The compound `Cn1cnc2cc(OC3CCN(C(=O)c4ccc(C(=O)NC5CCN(Cc6ccc(C#N)cc6)CC5)cn4)CC3)ccc21` [Compound 7-38, N-(1-(4-cyanobenzyl)piperidin-4-yl)-6-(4-(1-methyl-1H-benzo[d]imidazol-5-yloxy)piperidine-1-carbonyl)nicotinamide] registered an EC50 of 1000 to 10000 nM.

Compound `O=C(NC1CCN(Cc2ccc(OC(F)(F)F)cc2)CC1)c1ccc(C(=O)N2CCC(C(=O)c3ccc(N4CCCC4)cc3)CC2)nc1` [Compound 7-110, 6-(4-(4-(pyrrolidin-1-yl)benzoyl)piperidine-1-carbonyl)-N-(1-(4-(trifluoromethoxy)benzyl)piperidin-4-yl)nicotinamide] gave an EC50 of less than 1000 nM.
